Test results from patent US20230040386A1, “URSODEOXYCHOLIC ACID-CONTAINING AGENT FOR TREATING OR PREVENTING PRESBYOPIA” (priority 2018, published 2023).

Tested on: anterior segment of the eye
Test: Ocular Irritation Test (McDonald-Shadduck method, lens observation, histopathology)
Assay type: in vivo, Japanese White rabbits
Procedure: A vehicle (aqueous solution) comprising 0.1% (w/v) of ethyl pyruvate, 0.269% (w/v) of sodium dihydrogenphosphate monohydrate ([…]), 0.433% (w/v) of disodium hydrogenphosphate (Na2HPO4), 0.2% (w/v) of hydroxypropyl methylcellulose, 0.5% (w/v) of NaCl was prepared.
Group treated with an ophthalmic suspension of ursodeoxycholic acid 1% (w/v), 3% (w/v), and 10% (w/v) ursodeoxycholic acid ophthalmic suspensions were prepared in the same manner as in the above pharmacological tests. These ophthalmic suspensions and the vehicle were each instilled into the left eye of Japanese White rabbits at a dose of 50 μL/eye with pipette twice per day at a 6-hour interval for 2 weeks. One hour after the final instillation, ocular irritation of anterior segment of the eye was evaluated according to the McDonald-Shadduck method, and the lens was observed. The contralateral eye was untreated.
The ocular irritation of anterior segment of the eye was scored according to the following criteria:
+1: mild; +2: moderate; +3: severe.

[1] = after 2 week-repeated instillation of 1%, 3%, 10% ophthalmic suspensions

C[C@H](CCC(=O)O)[C@H]1CC[C@H]2[C@@H]3[C@@H](O)C[C@@H]4C[C@H](O)CC[C@]4(C)[C@H]3CC[C@]12C [ursodeoxycholic acid, 3α,7β-Dihydroxy-5β-cholan-24-oic acid]
Histopathological examination of the eyes, in words [1]: no abnormal findings | Observation of ocular irritation of anterior segment of the eye and lens observation, in words [1]: no abnormal findings | Safety of the ophthalmic suspensions, in words (rabbit, in vivo): highly safe
